Key:
ALDH1A3 = target: T1, ALDH1A3 (Homo sapiens, UniProt P47895); test: Primary biochemical assay, NAD(P)H-Glo Detection System; set-up: His-tag; made in house; host or cells: E. coli Rosetta (DE3); conditions: 30 min pre-incubation, propionaldehyde and NAD at Km
T1 sequence (P47895 1-512): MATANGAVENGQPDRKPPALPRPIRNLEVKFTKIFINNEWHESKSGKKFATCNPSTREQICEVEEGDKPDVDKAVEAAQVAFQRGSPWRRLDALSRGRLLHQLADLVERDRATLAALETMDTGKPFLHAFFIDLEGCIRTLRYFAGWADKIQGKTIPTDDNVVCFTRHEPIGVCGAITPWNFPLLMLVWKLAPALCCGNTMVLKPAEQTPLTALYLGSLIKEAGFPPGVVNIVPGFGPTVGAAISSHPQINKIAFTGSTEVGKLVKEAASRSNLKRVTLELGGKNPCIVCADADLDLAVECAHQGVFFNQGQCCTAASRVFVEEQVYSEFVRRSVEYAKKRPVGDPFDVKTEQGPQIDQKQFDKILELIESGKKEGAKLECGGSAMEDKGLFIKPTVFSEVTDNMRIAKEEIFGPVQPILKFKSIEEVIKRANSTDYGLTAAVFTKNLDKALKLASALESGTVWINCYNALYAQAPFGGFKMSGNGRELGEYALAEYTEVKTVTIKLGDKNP
Description: (§1) Cloning: Open reading frames corresponding to the protein coding sequences of full length human ALDH1A1 (Uniprot ID P00352), ALDH1A2 (094788) and ALDH1A3 (P47895) were polymerase chain reaction (PCR) amplified from human cDNA and inserted into the multi-cloning sites of the commercially available (Novagen) E. coli expression vectors pET47b (ALDH1A1, EcoRI restriction site; ALDH1A2, BamHI and EcoRI sites) or pET28a (ALDH1A3, NdeI and BamHI sites), using standard molecular genetic techniques. Recombinant DNA products were sequence verified prior to use in expression studies.
(§2) Expression: Expression constructs were transformed into the E. coli strain Rosetta (DE3) (Merck) and individual colonies used to inoculate 10 mL lysogen broth (LB) medium supplemented with kanamycin and chloramphenicol at 50 μg/mL and 34 μg/mL, respectively. Cultures were grown to saturation overnight at 37° C., prior to being used to sub-inoculate fresh 1 L LB medium cultures (plus antibiotics, as before). 1 L cultures were grown at 37° C., 200 rpm, throughout the day until the optical density at 600 nm (OD600) reached ˜0.8, at which point growth temperature was reduced to 18° C. and 1 mM isopropyl β-d-1-thiogalacto pyranoside (IPTG) added to induce protein expression.
(§3) Cultures were left overnight (at least 16 h) under these conditions and the following day harvested by centrifugation (4000 G, 10 minutes). Culture supernatant was discarded and cell pellets stored at −80° C. until further processing.
(§4) Purification: Cell pellets were thawed on ice, re-suspended in Ni Affinity Buffer A (20 mM HEPES pH 7.5, 300 mM NaCl, 20 mM imidazole, 1 mM tris(2-carboxyethyl)phosphine (TCEP)) with protease inhibitors (cOmplete Ultra protease inhibitor, Roche), and lysed by sonication. Lysates were clarified by centrifugation at 18,000 G, 4° C., for 40 minutes, and loaded directly onto a pre-equilibrated (Buffer A) 5 mL HisTrap Fast Flow column (GE Healthcare) by way of an AKTA Fast Protein Liquid Chromatography (FPLC) system. The column was sequentially treated with 6 column volumes (CV) 100% Buffer A, 8 CV of 90% Buffer A:10% Buffer B (20 mM 4-(2-hydroxyethyl)-1-piperazineethanesulfonic acid (HEPES) pH 7.5, 300 mM NaCl, 500 mM imidazole, 1 mM TCEP) and finally a linear gradient from 10-70% Buffer B over 8 CV to elute recombinant His-tagged protein. Relevant fractions (as measured by 280 nm absorbance) collected during elution were pooled and subjected to further purification by size exclusion chromatography (Superdex 200 26/600, GE Healthcare, running buffer 20 mM 2-(carbamoylmethylamino)ethanesulfonic acid (ACES) pH 7.5, 1 mM TCEP). Relevant fractions from this step were pooled, aliquoted, and stored at −80° C. until required for compound profiling assays.
(§5) Materials: ALDH2 was purchased from Abnova. Tris(hydroxymethyl)aminomethane (Tris) was purchased from MP Biomedicals. TCEP, ethylenediaminetetraacetic acid (EDTA), propionaldehyde, DMSO and Tween-20 were purchased from Sigma. Nicotinamide adenine dinucleotide (NAD) was obtained from Abcam. The NAD(P)H-Glo™ Detection System was purchased from Promega. White, non-binding surface, 384 well plates were supplied by Corning (#3574).
(§6) Method: Inhibition of ALDH1A3 was assessed using the NAD(P)H-Glo™ Detection System (Cat. No. G9062) from Promega. This assay detects the production of NADH from NAD by ALDH1A3 via the coupled enzymatic conversion of a proluciferin reductase substrate to generate a luminescent signal. Inhibition of ALDH1A3 by small molecule inhibitors will result in reduction or abrogation of luminescence signal increase above background. Inhibition of ALDH1A1, ALDH1A2 and ALDH2 (selectivity assays) were assessed using the same assay.
(§7) Compounds were dosed into Corning 384 well assay plates using an Echo acoustic dispenser to give 10 point curves in a 3-fold dilution series. Compounds were dispensed from a 20 mM DMSO stock and initially screened at a top concentration of 20 μM (ALDH1A3) or 250 μM (ALDH1A1, ALDH1A2 & ALDH2). […]

ALDH1A1 = target: T2, ALDH1A1 (Homo sapiens, UniProt P00352); test: Selectivity biochemical assay, NAD(P)H-Glo Detection System
T2 construct: His-tag; made in house; host or cells: E. coli Rosetta (DE3)
T2 sequence (P00352 1-501): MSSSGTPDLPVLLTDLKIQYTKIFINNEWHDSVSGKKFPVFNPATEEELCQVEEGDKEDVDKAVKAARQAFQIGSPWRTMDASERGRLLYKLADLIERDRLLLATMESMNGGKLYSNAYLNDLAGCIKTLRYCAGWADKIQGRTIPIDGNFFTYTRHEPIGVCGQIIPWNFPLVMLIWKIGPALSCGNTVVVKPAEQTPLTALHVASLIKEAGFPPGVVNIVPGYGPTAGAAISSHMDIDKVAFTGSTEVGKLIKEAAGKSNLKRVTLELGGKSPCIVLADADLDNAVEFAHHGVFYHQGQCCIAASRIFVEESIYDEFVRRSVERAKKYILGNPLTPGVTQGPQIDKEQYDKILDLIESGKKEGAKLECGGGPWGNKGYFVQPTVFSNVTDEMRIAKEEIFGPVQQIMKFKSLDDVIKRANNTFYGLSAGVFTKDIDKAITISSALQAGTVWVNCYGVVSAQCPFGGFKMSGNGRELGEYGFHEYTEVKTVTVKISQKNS
Description: as §1, §2, §3, §4, §5, §6, §7

| SMILES | IC50 (ALDH1A3) | IC50 (ALDH1A1) |
| --- | --- | --- |
| O=C1CCc2cc(NC(=O)c3scnc3-c3cccc(C(F)(F)F)c3)ccc2N1 [ALDHI-1015, N-(2-oxo-3,4-dihydro-1H-quinolin-6-yl)-4-[3-(trifluoromethyl)phenyl]thiazole-5-carboxamide] | 1000 to 10000 nM | ≥ 100 µM |
| Cc1nn(C)cc1C1CCCN1CCOc1ccc2c(c1)CCC(=O)N2 (stereo not shown) [ALDHI-2015, 6-[2-[2-(1,3-dimethylpyrazol-4-yl)pyrrolidin-1-yl]ethoxy]-3,4-dihydro-1H-quinolin-2-one] | 1000 to 10000 nM | ≥ 100 µM |
| Cn1cccc1C1CCCN1CCOc1ccc2c(c1)CCC(=O)N2 (stereo not shown) [ALDHI-2017, 6-[2-[2-(1-methylpyrrol-2-yl)pyrrolidin-1-yl]ethoxy]-3,4-dihydro-1H-quinolin-2-one] | 1000 to 10000 nM | ≥ 100 µM |
| CN(CCOc1ccc2c(c1)CCC(=O)N2)Cc1cnn(C)c1 [ALDHI-3009, 6-[2-[methyl-[(1-methylpyrazol-4-yl)methyl]amino]ethoxy]-3,4-dihydro-1H-quinolin-2-one] | 1000 to 10000 nM | 10 to 100 µM |
| O=C1CCc2cc(NC(=O)c3scnc3-c3cccc(F)c3)c(F)cc2N1 [ALDHI-1025, N-(7-fluoro-2-oxo-3,4-dihydro-1H-quinolin-6-yl)-4-(3-fluorophenyl)thiazole-5-carboxamide] | < 100 nM | ≥ 100 µM |
| O=C1COc2cc(OCCN3CCCC3c3ccccn3)ccc2N1 (stereo not shown) [ALDHI-2025, 7-[2-[2-(2-pyridyl)pyrrolidin-1-yl]ethoxy]-4H-1,4-benzoxazin-3-one] | 1000 to 10000 nM | ≥ 100 µM |
| CC(C)C1Oc2cc(OCCN3CCCC3c3cccc(F)c3)ccc2NC1=O (stereo not shown) [ALDHI-2049, 7-[2-[2-(3-fluorophenyl)pyrrolidin-1-yl]ethoxy]-2-isopropyl-4H-1,4-benzoxazin-3-one] | 1000 to 10000 nM | ≥ 100 µM |
| O=C1CCc2cc(NC(=O)c3scnc3-c3cc(F)cc(F)c3)ccc2N1 [ALDHI-1024, 4-(3,5-difluorophenyl)-N-(2-oxo-3,4-dihydro-1H-quinolin-6-yl)thiazole-5-carboxamide] | < 100 nM | ≥ 100 µM |
| O=C1CCc2cc(OCCN3CCNCC3c3ccccc3)ccc2N1 (stereo not shown) [ALDHI-2036, 6-[2-(2-phenylpiperazin-1-yl)ethoxy]-3,4-dihydro-1H-quinolin-2-one] | 1000 to 10000 nM | ≥ 100 µM |
| CN(CCOc1ccc2c(c1)CCC(=O)N2)Cc1ccccn1 [ALDHI-3012, 6-[2-[methyl(2-pyridylmethyl)amino]ethoxy]-3,4-dihydro-1H-quinolin-2-one] | 1000 to 10000 nM | ≥ 100 µM |
| Cn1cc(CN(CCO)CCOc2ccc3c(c2)CCC(=O)N3)cn1 [ALDHI-3011, 6-[2-[2-hydroxyethyl-[(1-methylpyrazol-4-yl)methyl]amino]ethoxy]-3,4-dihydro-1H-quinolin-2-one] | 1000 to 10000 nM | 10 to 100 µM |
| CN(CCOc1ccc2c(c1)CCC(=O)N2)Cc1ccncc1 [ALDHI-3014, 6-[2-[methyl(4-pyridylmethyl)amino]ethoxy]-3,4-dihydro-1H-quinolin-2-one] | 1000 to 10000 nM | ≥ 100 µM |
| Cc1onc(-c2cccc(F)c2)c1C(=O)Nc1ccc2c(c1)CCC(=O)N2 [ALDHI-1009, 3-(3-fluorophenyl)-5-methyl-N-(2-oxo-3,4-dihydro-1H-quinolin-6-yl)isoxazole-4-carboxamide] | 1000 to 10000 nM | ≥ 100 µM |
| Cn1cc(C2CCCN2CCOc2ccc3c(c2)OCC(=O)N3)cn1 (stereo not shown) [ALDHI-2024, 7-[2-[2-(1-methylpyrazol-4-yl)pyrrolidin-1-yl]ethoxy]-4H-1,4-benzoxazin-3-one] | 1000 to 10000 nM | ≥ 100 µM |
| CCCC1Oc2cc(OCCN3CCCC3c3cccc(F)c3)ccc2NC1=O (stereo not shown) [ALDHI-2047, 7-[2-[2-(3-fluorophenyl)pyrrolidin-1-yl]ethoxy]-2-propyl-4H-1,4-benzoxazin-3-one] | 1000 to 10000 nM | ≥ 100 µM |
| Cc1nc(-c2cccc(F)c2)c(C(=O)Nc2ccc3c(c2)CCC(=O)N3)s1 [ALDHI-1026, 4-(3-fluorophenyl)-2-methyl-N-(2-oxo-3,4-dihydro-1H-quinolin-6-yl)thiazole-5-carboxamide] | < 100 nM | ≥ 100 µM |
| CS(=O)(=O)N1CCN(CCOc2ccc3c(c2)CCC(=O)N3)C(c2ccccc2)C1 (stereo not shown) [ALDHI-2046, 6-[2-(4-methylsulfonyl-2-phenyl-piperazin-1-yl)ethoxy]-3,4-dihydro-1H-quinolin-2-one] | 1000 to 10000 nM | 10 to 100 µM |
